Measured values published in patent US10758534B2 (Vertex Pharmaceuticals Incorporated, priority 2014, dated 2020).

Biological target: T1, F508del (Homo sapiens, UniProt P13569, DEL508-508)
T1 construct: expressed in transfected cells
Assay: Protocol 2: FRET membrane potential optical assay (VIPR), identification of correction compounds
Format: cell-based
Details: Table 3; compounds of Table 1 as modulators of CFTR activity; protocol not stated
Source text: Membrane potential optical methods for assaying F508del modulation properties of compounds.
These voltage sensitive assays are based on the change in fluorescence resonant energy transfer (FRET) between the membrane-soluble, voltage-sensitive dye, DiSBAC2(3), and a fluorescent phospholipid, CC2-DMPE, which is attached to the outer leaflet of the plasma membrane and acts as a FRET donor. Changes in membrane potential (Vm) cause the negatively charged DiSBAC2(3) to redistribute across the plasma membrane and the amount of energy transfer from CC2-DMPE changes accordingly. The changes in fluorescence emission were monitored using VIPR™ II, which is an integrated liquid handler and fluorescent detector designed to conduct cell-based screens in 96- or 384-well microtiter plates.
To identify small molecules that correct the trafficking defect associated with F508del; a single-addition HTS assay format was developed. The cells were incubated in serum-free medium for 16 hrs at 37° C. in the presence or absence (negative control) of test compound. As a positive control, cells plated in 384-well plates were incubated for 16 hrs at 27° C. to “temperature-correct” F508del. The cells were subsequently rinsed 3× with Krebs Ringers solution and loaded with the voltage-sensitive dyes. To activate F508del, 10 μM forskolin and the CFTR potentiator, genistein (20 μM), were added along with Cl^−-free medium to each well. The addition of Cl^−-free medium promoted Cl^− efflux in response to F508del activation and the resulting membrane depolarization was optically monitored using the FRET-based voltage-sensor dyes.
• Bath Solution #1: (in mM) NaCl 160, KCl 4.5, CaCl2 2, MgCl2 1, HEPES 10, pH 7.4 with NaOH. • Chloride-free bath solution: Chloride salts in Bath Solution #1 (above) are substituted with gluconate salts. • CC2-DMPE: Prepared as a 10 mM stock solution in DMSO and stored at −20° C. • DiSBAC2(3): Prepared as a 10 mM stock in DMSO and stored at −20° C. Cell Culture
NIH3T3 mouse fibroblasts stably expressing F508del are used for optical measurements of membrane potential. The cells are maintained at 37° C. in 5% CO2 and 90% humidity in Dulbecco's modified Eagle's medium supplemented with 2 mM glutamine, 10% fetal bovine serum, 1×NEAA, β-ME, 1× pen/strep, and 25 mM HEPES in 175 cm^2 culture flasks. For all optical assays, the cells were seeded at 30,000/well in 384-well matrigel-coated plates and cultured for 2 hrs at 37° C. before culturing at 27° C. for 24 hrs for the potentiator assay. For the correction assays, the cells are cultured at 27° C. or 37° C. with and without compounds for 16-24 hours.

T1 sequence (P13569 with tags, fused parts or gaps DEL508-508): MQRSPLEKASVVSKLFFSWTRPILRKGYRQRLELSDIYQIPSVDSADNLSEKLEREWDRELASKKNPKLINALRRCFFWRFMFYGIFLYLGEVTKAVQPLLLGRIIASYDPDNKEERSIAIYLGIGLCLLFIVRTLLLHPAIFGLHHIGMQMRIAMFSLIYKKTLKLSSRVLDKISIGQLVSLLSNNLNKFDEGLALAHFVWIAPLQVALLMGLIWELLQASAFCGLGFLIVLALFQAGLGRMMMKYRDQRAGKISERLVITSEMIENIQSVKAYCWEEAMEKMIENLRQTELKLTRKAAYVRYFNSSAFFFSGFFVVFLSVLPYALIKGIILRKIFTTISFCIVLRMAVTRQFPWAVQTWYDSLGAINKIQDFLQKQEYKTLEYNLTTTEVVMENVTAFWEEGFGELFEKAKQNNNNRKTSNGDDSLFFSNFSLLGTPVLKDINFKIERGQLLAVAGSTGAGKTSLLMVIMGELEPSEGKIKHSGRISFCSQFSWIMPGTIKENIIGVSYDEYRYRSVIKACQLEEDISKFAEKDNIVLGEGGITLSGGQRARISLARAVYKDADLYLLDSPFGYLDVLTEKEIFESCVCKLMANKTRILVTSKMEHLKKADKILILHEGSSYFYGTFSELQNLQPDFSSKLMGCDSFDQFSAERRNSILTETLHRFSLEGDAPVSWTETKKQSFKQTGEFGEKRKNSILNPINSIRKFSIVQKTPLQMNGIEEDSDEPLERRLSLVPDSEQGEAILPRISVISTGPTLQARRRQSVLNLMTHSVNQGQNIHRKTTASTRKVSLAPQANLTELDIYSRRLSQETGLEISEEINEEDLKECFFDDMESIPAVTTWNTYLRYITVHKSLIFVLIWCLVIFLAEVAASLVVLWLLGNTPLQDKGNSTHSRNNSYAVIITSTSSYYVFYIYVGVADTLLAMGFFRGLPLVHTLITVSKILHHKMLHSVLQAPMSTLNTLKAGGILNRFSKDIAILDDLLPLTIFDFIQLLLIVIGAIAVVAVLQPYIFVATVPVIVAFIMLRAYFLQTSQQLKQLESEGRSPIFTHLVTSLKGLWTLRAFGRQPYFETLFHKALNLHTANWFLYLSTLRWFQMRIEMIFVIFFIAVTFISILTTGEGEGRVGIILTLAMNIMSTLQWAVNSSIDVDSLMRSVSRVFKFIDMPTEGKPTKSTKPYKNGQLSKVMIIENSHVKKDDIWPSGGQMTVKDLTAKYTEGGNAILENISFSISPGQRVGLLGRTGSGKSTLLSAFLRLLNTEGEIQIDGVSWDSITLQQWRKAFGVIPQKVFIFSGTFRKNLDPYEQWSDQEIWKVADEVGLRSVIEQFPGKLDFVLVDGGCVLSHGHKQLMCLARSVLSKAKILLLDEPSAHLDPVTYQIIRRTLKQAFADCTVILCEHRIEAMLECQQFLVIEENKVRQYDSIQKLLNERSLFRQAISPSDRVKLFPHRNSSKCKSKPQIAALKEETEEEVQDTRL

SMILES	EC30
Cc1cc(C)c(Oc2nc(-c3cccc(OCC(C)C)c3)ccc2C(=O)NS(=O)(=O)c2cccc(N)n2)c(C)c1 [Compound 8, N-[(6-amino-2-pyridyl)sulfonyl]-6-(3-isobutoxyphenyl)-2-(2,4,6-trimethylphenoxy)pyridine-3-carboxamide]	+++ (“+++” means <3 uM)
Cc1cc(C)c(Cn2c(C(=O)NS(=O)(=O)c3cccc(N)c3)cc3ccc(Cl)cc32)c(C)c1 [Compound 9, N-(3-aminophenyl)sulfonyl-6-chloro-1-[(2,4,6-trimethylphenyl)methyl]indole-2-carboxamide]	+++ (“+++” means <3 uM)
Cc1cc(C)c(Cn2c(C(=O)NS(=O)(=O)c3ccccc3)cc3ccc(C)cc32)c(C)c1 [Compound 12, N-(benzenesulfonyl)-6-methyl-1-[(2,4,6-trimethylphenyl)methyl]indole-2-carboxamide]	+++ (“+++” means <3 uM)
COc1cccc(S(=O)(=O)NC(=O)C2c3ccccc3CN2Cc2c(C)cc(C)cc2C)c1 (stereo not shown) [Compound 16, N-(3-methoxyphenyl)sulfonyl-2-[(2,4,6-trimethylphenyl)methyl]isoindoline-1-carboxamide]	+++ (“+++” means <3 uM)
COc1ccc(-c2ccc(C(=O)NS(=O)(=O)c3cccc(N)n3)c(Oc3c(C)cc(C)cc3C)n2)cc1 [Compound 17, N-[(6-amino-2-pyridyl)sulfonyl]-6-(4-methoxyphenyl)-2-(2,4,6-trimethylphenoxy)pyridine-3-carboxamide]	+++ (“+++” means <3 uM)
Cc1cc(C)c(Cn2nc(C(C)(C)C)c(C)c2C(=O)NS(=O)(=O)c2cccc(N)c2)c(C)c1 [Compound 20, N-(3-aminophenyl)sulfonyl-5-tert-butyl-4-methyl-2-[(2,4,6-trimethylphenyl)methyl]pyrazole-3-carboxamide]	+++ (“+++” means <3 uM)

The next lines start with the values.

EC30	SMILES
+++ (“+++” means <3 uM)	Cc1cc(C)c(Cn2c(C(=O)NS(=O)(=O)c3ccccc3)cc3ccc(Cl)cc32)c(C)c1 [Compound 10, N-(benzenesulfonyl)-6-chloro-1-[(2,4,6-trimethylphenyl)methyl]indole-2-carboxamide]
+++ (“+++” means <3 uM)	Cc1cc(C)c(Oc2nc(C(C)(C)C)ccc2C(=O)NS(=O)(=O)c2ccc(N)cc2)c(C)c1 [Compound 11, N-(4-aminophenyl)sulfonyl-6-tert-butyl-2-(2,4,6-trimethylphenoxy)pyridine-3-carboxamide]
++ (“++” means between 3 uM and 10 uM)	Cc1cc(C)c(Oc2nc(C)ccc2C(=O)NS(=O)(=O)c2cccc(N)c2)c(C)c1 [Compound 13, N-(3-aminophenyl)sulfonyl-6-methyl-2-(2,4,6-trimethylphenoxy)pyridine-3-carboxamide]
+++ (“+++” means <3 uM)	Cc1cc(C)c(Oc2nc(-c3ccc4c(c3)OCCCO4)ccc2C(=O)NS(=O)(=O)c2cccc(N)n2)c(C)c1 [Compound 14, N-[(6-amino-2-pyridyl)sulfonyl]-6-(3,4-dihydro-2H-1,5-benzodioxepin-7-yl)-2-(2,4,6-trimethylphenoxy)pyridine-3-carboxamide]
+++ (“+++” means <3 uM)	Cc1ccc(Oc2nc3c(cc2C(=O)NS(=O)(=O)c2cccc(N)n2)CCCC3(C)C)c(C)c1 [Compound 15, N-[(6-amino-2-pyridyl)sulfonyl]-2-(2,4-dimethylphenoxy)-8,8-dimethyl-6,7-dihydro-5H-quinoline-3-carboxamide]
+++ (“+++” means <3 uM)	COc1ncccc1S(=O)(=O)NC(=O)c1cc2ccccc2n1Cc1c(C)cc(C)cc1C [Compound 18, N-[(2-methoxy-3-pyridyl)sulfonyl]-1-[(2,4,6-trimethylphenyl)methyl]indole-2-carboxamide]
+++ (“+++” means <3 uM)	CCOC(=O)Cc1ccc(-c2cc(C(=O)NS(=O)(=O)c3ccccc3)n(Cc3c(C)cccc3C)n2)cc1 [Compound 21, ethyl 2-[4-[5-(benzenesulfonylcarbamoyl)-1-[(2,6-dimethylphenyl)methyl]pyrazol-3-yl]phenyl]acetate]
